From ChEMBL document CHEMBL2029206, “Design, synthesis and biological evaluation of potent NAD+-dependent DNA ligase inhibitors as potential antibacterial agents. Part 2: 4-amino-pyrido[2,3-d]pyrimidin-5(8H)-ones” (Bioorg Med Chem Lett, 2012) come the findings set out here.

The term IC50 denotes the concentration needed to halve the response being measured. High values mean a need for much substance, low ones inhibition by little substance.

Converted amounts (≈) assume the structure as drawn. The source made the active and inactive calls. No cut-off for these calls is given here.

Experiment [1] in a line: Inhibition of Escherichia coli NAD+dependent DNA ligase.
Experiment [2] concerns Escherichia coli. Description: Antibacterial activity against wild-type Escherichia coli. The experiment is classed as functional, organism-based.
Experiment [3] is described as follows: Inhibition of human ATP-dependent DNA ligase.
For experiment [4], the system named is Staphylococcus aureus. Kind of experiment: Antibacterial activity against Staphylococcus aureus ATCC 29213. The experiment is classed as functional.
For experiment [5], the system named is Streptococcus pneumoniae. Description: Antibacterial activity against Streptococcus pneumoniae ATCC 10015. Format: functional.
Experiment [6] has as its system Haemophilus influenzae. Kind of experiment: Antibacterial activity against Haemophilus influenzae ATCC 51907. The experiment is classed as functional.

As for `CC(C)Oc1nc(N)c2c(=O)ccn(CCO)c2n1`, the IC50 in experiment [1] was 1060 nM; in experiment [3] it was greater than 55000 nM. In experiment [2], the result was inactive.
For `C[C@H]1CCCC[C@H]1Oc1nc(N)c2c(=O)ccn(Cc3ccc(C(=O)O)cc3)c2n1` (relative stereo), the MIC in experiment [4] and in experiment [5] was greater than 100 µM each time. Also, the IC50 in experiment [1] was 19 nM; in experiment [3], greater than 55000 nM. The outcome in experiment [2] was inactive.
`C[C@H]1CCCC[C@H]1Oc1nc(N)c2c(=O)ccn(CC(O)CO)c2n1` (relative stereo): the MIC in experiment [4] and in experiment [5] was greater than 100 µM throughout. Further, the results for the IC50 in experiment [1] and in experiment [3] were 79 nM and greater than 55000 nM, respectively. Also, the result in experiment [2] was inactive.
As for `C[C@H]1CCCC[C@H]1Oc1nc(N)c2c(=O)ccn([C@@H]3CC[C@@H]4C[C@H]3OC4=O)c2n1`, the MIC in experiment [4] and in experiment [5] was greater than 100 µM throughout. Further, the half-maximal inhibitory concentration (IC50) is 28 nM in experiment [1] and greater than 55000 nM in experiment [3]. In experiment [2], the result was inactive.
Turning to `Nc1nc(OCCF)nc2c1c(=O)ccn2CCO`, the IC50 was 1950 nM in experiment [1] and greater than 55000 nM in experiment [3]. The outcome in experiment [2] was inactive.
In the case of `C[C@H]1CCCC[C@H]1Oc1nc(N)c2c(=O)ccn(CC3C[C@@H](O)[C@@H](O)C3)c2n1` (stereo partly specified), the MIC in experiment [4] and in experiment [5] was greater than 100 µM each time. Also, the IC50 in experiment [1] is 68 nM; in experiment [3], greater than 55000 nM. For the same compound, the outcome in experiment [2] was inactive.
With `Nc1nc(SC2CCCC2)nc2c1c(=O)ccn2[C@H]1CCC[C@@H]1O` (relative stereo), the MIC in experiment [4] was 25 µM (≈ 8.66 µg/mL); in experiment [6] it was greater than 100 µM; in experiment [5], greater than 100 µM. Also, the half-inhibitory concentration (IC50) in experiment [1] was 63 nM; in experiment [3] it was greater than 55000 nM. Moreover, the result in experiment [2] was inactive.
Consider `C[C@H]1CCCC[C@H]1Oc1nc(N)c2c(=O)ccn(CCC#N)c2n1` (relative stereo), for which the MIC in experiment [4] and in experiment [5] was greater than 100 µM each time. The IC50 in experiment [1] was 36 nM; in experiment [3] it was greater than 55000 nM. Moreover, the result in experiment [2] was inactive.
For `Nc1nc(OC2CCC3(CC2)OCCO3)nc2c1c(=O)ccn2[C@H]1CCC[C@@H]1O` (relative stereo), the MIC in experiment [4] was greater than 100 µM; in experiment [6] it was greater than 100 µM; in experiment [5], 50 µM (≈ 20.1 µg/mL). Moreover, the IC50 in experiment [1] was 90 nM; in experiment [3], greater than 55000 nM. For the same compound, the result in experiment [2] was inactive.
As to `C[C@H]1CC[C@H](Oc2nc(N)c3c(=O)ccn(Cc4ccc(C(=O)O)s4)c3n2)CC1`, the figures for the MIC in experiment [4], in experiment [6] and in experiment [5] were greater than 100 µM, 25 µM (≈ 10.4 µg/mL) and 83.3 µM (≈ 34.5 µg/mL), respectively. In addition, the results for the IC50 in experiment [1] and in experiment [3] were 490 nM and greater than 55000 nM, respectively. Besides, the outcome in experiment [2] was inactive.
Regarding `C[C@H]1CCCC[C@H]1Oc1nc(N)c2c(=O)ccn([C@@H]3CCCC[C@H]3O)c2n1`, the MIC worked out at 100 µM (≈ 37.2 µg/mL) in experiment [4] and 75 µM (≈ 27.9 µg/mL) in experiment [5]. The results for the half-maximal inhibitory concentration (IC50) in experiment [1] and in experiment [3] were 110 nM and greater than 55000 nM, respectively. In addition, in experiment [2], the result was inactive.
For `C[C@H]1CCCC[C@H]1Oc1nc(N)c2c(=O)ccn([C@@H]3COC[C@H]3O)c2n1`, the MIC in experiment [4] and in experiment [5] was 100 µM (≈ 36 µg/mL) each time. In addition, the IC50 in experiment [1] is 38 nM; in experiment [3], greater than 55000 nM. Moreover, the outcome in experiment [2] was inactive.
Consider `C[C@H]1CC[C@H](Oc2nc(N)c3c(=O)ccn(C4[C@@H](O)CC[C@@H]4O)c3n2)CC1`, for which the values for the MIC in experiment [4], in experiment [6] and in experiment [5] were 25 µM (≈ 9.36 µg/mL), 100 µM (≈ 37.4 µg/mL) and 5.2 µM (≈ 1.95 µg/mL), respectively. The half-maximal inhibitory concentration (IC50) in experiment [1] is 76 nM; in experiment [3] it was greater than 55000 nM. Further, in experiment [2], the result was inactive.
On to `C[C@H]1CC[C@H](Oc2nc(N)c3c(=O)ccn([C@H]4CC(C(N)=O)C[C@@H]4O)c3n2)CC1` (stereo partly specified), for which the MIC was greater than 100 µM in experiment [4], 100 µM (≈ 40.1 µg/mL) in experiment [6] and 20.8 µM (≈ 8.35 µg/mL) in experiment [5]. Also, the IC50 was 48 nM in experiment [1] and greater than 55000 nM in experiment [3]. Moreover, the result in experiment [2] was inactive.
For `Nc1nc(NC2CCCC2)nc2c1c(=O)ccn2CCO`, the IC50 is greater than 10000 nM in experiment [1] and greater than 55000 nM in experiment [3]. Moreover, the outcome in experiment [2] was inactive.
Regarding `Nc1nc(OC2CCC(Cl)CC2)nc2c1c(=O)ccn2[C@H]1CCC[C@@H]1O` (relative stereo), the results for the MIC in experiment [4], in experiment [6] and in experiment [5] were 50 µM (≈ 18.9 µg/mL), 75 µM (≈ 28.4 µg/mL) and 6.3 µM (≈ 2.39 µg/mL), respectively. Moreover, the IC50 was 41 nM in experiment [1] and greater than 55000 nM in experiment [3]. Moreover, the outcome in experiment [2] was inactive.
For `C[C@@H]1CCCC[C@@H]1Oc1nc(N)c2c(=O)ccn(CCO)c2n1` (relative stereo), the IC50 in experiment [1] is 57 nM; in experiment [3], greater than 55000 nM. For the same compound, the outcome in experiment [2] was inactive.
As to `C[C@H]1CCCC[C@H]1Oc1nc(N)c2c(=O)ccn(Cc3cn[nH]c3)c2n1` (relative stereo), the MIC in experiment [4] and in experiment [5] was greater than 100 µM throughout. In addition, the IC50 in experiment [1] was 36 nM; in experiment [3] it was greater than 55000 nM. Further, the result in experiment [2] was inactive.
As for `C[C@H]1CCCC[C@H]1Oc1nc(N)c2c(=O)ccn(CC(O)CF)c2n1` (relative stereo), the MIC in experiment [4] was greater than 100 µM; in experiment [5], 100 µM (≈ 35 µg/mL). Moreover, the results for the IC50 in experiment [1] and in experiment [3] were 28 nM and greater than 55000 nM, respectively. Also, in experiment [2], the outcome was inactive.
The matching figures for `C[C@H]1CCCC[C@H]1Oc1nc(N)c2c(=O)ccn(CC#N)c2n1` (relative stereo): greater than 100 µM, greater than 100 µM, 20 nM, greater than 55000 nM and “inactive”.
Consider `Nc1nc(OC2CCC(C(F)(F)F)CC2)nc2c1c(=O)ccn2[C@H]1CCC[C@@H]1O` (relative stereo), for which the results for the MIC in experiment [4], in experiment [6] and in experiment [5] were 50 µM (≈ 20.6 µg/mL), greater than 100 µM and 8.4 µM (≈ 3.46 µg/mL), respectively. Besides, the results for the half-inhibitory concentration (IC50) in experiment [1] and in experiment [3] were 350 nM and greater than 55000 nM, respectively. Also, the outcome in experiment [2] was inactive.
`C[C@H]1CC[C@H](Oc2nc(N)c3c(=O)ccn([C@@H]4CCC[C@H]4O)c3n2)CC1`: the MIC in experiment [4] amounted to 37.5 µM (≈ 13.4 µg/mL); in experiment [6], 100 µM (≈ 35.8 µg/mL); in experiment [5], 3.1 µM (≈ 1.11 µg/mL). In addition, the IC50 is 190 nM in experiment [1] and greater than 55000 nM in experiment [3]. The outcome in experiment [2] was inactive.
For `C[C@H]1CC[C@H](Oc2nc(N)c3c(=O)ccn(CCO)c3n2)CC1`, the IC50 was 420 nM in experiment [1] and greater than 55000 nM in experiment [3]. Moreover, in experiment [2], the outcome was inactive.
On to `Nc1nc(OC2CCCC2)nc2c1c(=O)ccn2CCO`, for which the IC50 is 510 nM in experiment [1] and greater than 55000 nM in experiment [3]. Moreover, the outcome in experiment [2] was inactive.
The matching figures for `Nc1nc(OC(CF)CF)nc2c1c(=O)ccn2CCO`: 310 nM, greater than 55000 nM and “inactive”.
For `C[C@H]1CCCC[C@H]1Oc1nc(N)c2c(=O)ccn(CC3CC=CC3)c2n1` (relative stereo), the MIC in experiment [4] and in experiment [5] was greater than 100 µM throughout. In addition, the IC50 was 20 nM in experiment [1] and greater than 55000 nM in experiment [3]. Also, the outcome in experiment [2] was inactive.
Take `Nc1nc(SC2CCCC2)nc2c1c(=O)ccn2CCO`: the half-inhibitory concentration (IC50) in experiment [1] is 350 nM; in experiment [3], greater than 55000 nM. For the same compound, the result in experiment [2] was inactive.
As to `C[C@H]1CC[C@H](Oc2nc(N)c3c(=O)ccn([C@H]4CC(C(=O)O)C[C@@H]4O)c3n2)CC1` (stereo partly specified), the MIC in experiment [4] was greater than 100 µM; in experiment [6], greater than 100 µM; in experiment [5], 83.3 µM (≈ 33.5 µg/mL). Besides, the IC50 is 51 nM in experiment [1] and greater than 55000 nM in experiment [3]. In addition, the result in experiment [2] was inactive.
With `C[C@H]1CC[C@H](Oc2nc(N)c3c(=O)ccn([C@H]4CC[C@H](O)[C@@H]4O)c3n2)CC1`, the MIC in experiment [4] was 25 µM (≈ 9.36 µg/mL); in experiment [6], greater than 100 µM; in experiment [5] it was 4.2 µM (≈ 1.57 µg/mL). For the same compound, the values for the IC50 in experiment [1] and in experiment [3] were 225 nM and greater than 55000 nM, respectively. Moreover, the outcome in experiment [2] was inactive.
As to `CC1CCC(Oc2nc(N)c3c(=O)ccn([C@H]4CCC[C@@H]4O)c3n2)C(C)C1` (relative stereo), the results for the MIC in experiment [4], in experiment [6] and in experiment [5] were greater than 100 µM, 50 µM (≈ 18.6 µg/mL) and 16.7 µM (≈ 6.22 µg/mL), respectively. The IC50 is 170 nM in experiment [1] and greater than 55000 nM in experiment [3]. In addition, the outcome in experiment [2] was inactive.
Take `C[C@H]1CC[C@H](Oc2nc(N)c3c(=O)ccn([C@H]4CCC[C@@H]4O)c3n2)CC1`: the MIC in experiment [4] worked out at 18.8 µM (≈ 6.74 µg/mL); in experiment [6], 75 µM (≈ 26.9 µg/mL); in experiment [5] it was 6.3 µM (≈ 2.26 µg/mL). For the same compound, the IC50 in experiment [1] is 39 nM; in experiment [3], greater than 55000 nM. In experiment [2], the result was inactive.
As to `C[C@H]1CCCC[C@H]1Oc1nc(N)c2c(=O)ccn([C@@H]3CCC[C@H]3O)c2n1`, the MIC in experiment [4] is 100 µM (≈ 35.8 µg/mL); in experiment [5] it was 50 µM (≈ 17.9 µg/mL). For the same compound, the IC50 in experiment [1] is 40 nM; in experiment [3], greater than 55000 nM. Moreover, the outcome in experiment [2] was inactive.
